Structures can show the parent of a compound that is named as a salt.
How the values were obtained:
[1] = Photophysical characterization: fluorescence properties and fluorescence quantum yield (SPEX-fluorolog, relative to indocyanine green); type: physicochemical; conditions: formulation with Gd-complex perfluoroalkyl derivative (WO 97/26017 Ex. 33); for Fluorescence quantum yield: 2 μM in dye
Method: (§1) The determination of the absorption maxima and extinction coefficients was carried out with a Lambda 2-spectrometer (Perkin-Elmer Company). The fluorescence properties were determined on a SPEX-fluorolog (Instruments S. A. Company, photomultiplier Hamamatsu PM928, excitation 350W xenon lamp). the determination of the fluorescence quantum yield was carried out relative to indocyanine green (O=13% in DMSO) by excitation at 585 nm (dyes with p=2) or 685 nm (dyes with p=3), in each case of solutions of concentration 2 μM in dye, and correction with the spectral sensitivity of lamp and detector.

[2] = Photophysical characterization: absorption maxima and extinction coefficients (Lambda 2-spectrometer); type: physicochemical; conditions: formulation with Gd-complex perfluoroalkyl derivative (WO 97/26017 Ex. 33)
Method: as §1

[3] = in DMSO; cited from earlier work
[4] = dyes 7-14 table, 5 mol % of dye

In the case of `CC1(C)C(=CC=CC=CC2=[N+](CCCCS(=O)(=O)[O-])c3ccc(C(=O)N(CCOCCC(F)(F)C(F)(F)C(F)(F)C(F)(F)C(F)(F)C(F)(F)C(F)(F)C(F)(F)F)CC(O)CO)cc3C2(C)C)N(CCCCS(=O)(=O)[O-])c2ccccc21.[Na+]` (stereo not shown) [Dye 9, 5-{N-[2-(3,3,4,4,5,5,6,6,7,7,8,8,9,9,10,10,10-heptadecafluorodecyloxy)ethyl]-N-(2,3-dihydroxypropyl)aminocarbonyl}-2-{7-[1,3-dihydro-3,3-dimethyl-1-(4-sulfobutyl)-2H-indol-2-ylidene]-1,3-pentadienyl}-3,3-dimethyl-1-(4-sulfobutyl)-3H-indolium, internal salt, sodium salt], the Fluorescence max. [1, 4] is reported as 685 nm, the Fluorescence quantum yield [1, 4] is reported as 0.12 and the Fluorescence max. ([1]; 1 mol % of dye) is reported as 681 nm. For the same molecule, the Fluorescence quantum yield ([1]; 1 mol % of dye) was 0.17, the Fluorescence max. ([1]; 2 mol % of dye) was 683 nm and the Fluorescence quantum yield ([1]; 2 mol % of dye) was 0.18. It also gave a Fluorescence max. ([1]; 5 mol % of dye) of 685 nm, a Fluorescence quantum yield ([1]; 5 mol % of dye) of 0.12 and a Fluorescence max. ([1]; 10 mol % of dye) of 685 nm. For the same molecule, the Fluorescence quantum yield ([1]; 10 mol % of dye) was 0.04, the Absorption max. [2, 4] was 651 nm and the Extinction coefficient [2, 4] was 123,700 L mol^−1 cm^−1. The Absorption max. ([2]; 1 mol % of dye) was 652 nm, the Extinction coefficient ([2]; 1 mol % of dye) was 132,000 L mol^−1 cm^−1 and the Absorption max. ([2]; 2 mol % of dye) was 651 nm. The Extinction coefficient ([2]; 2 mol % of dye) was 130,200 L mol^−1 cm^−1, the Absorption max. ([2]; 5 mol % of dye) was 651 nm and the Extinction coefficient ([2]; 5 mol % of dye) was 123,700 L mol^−1 cm^−1. The Absorption max. ([2]; 10 mol % of dye) was 649 nm and the Extinction coefficient ([2]; 10 mol % of dye) was 110,900 L mol^−1 cm^−1.

Molecule `CCN1C(=CC=CC=CC2=[N+](CCCCS(=O)(=O)[O-])c3ccc(C(=O)NCCOCCC(F)(F)C(F)(F)C(F)(F)C(F)(F)C(F)(F)C(F)(F)C(F)(F)C(F)(F)F)cc3C2(C)C)C(C)(C)c2ccccc21` [Dye 11, 2-[5-(1-Ethyl)-1,3-dihydro-3,3-dimethyl-2H-indol-2-ylidene)-1,3-pentatrienyl]-5-{N-[2-(3,3,4,4,5,5,6,6,7,7,8,8,9,9,10,10,10-heptadecafluorodecyloxy)ethyl]-aminocarbonyl}-3,3-dimethyl-1-(4-sulfobutyl)-3H-indolium, internal salt, sodium salt] has a Fluorescence max. [1, 4] of 683 nm, a Fluorescence quantum yield [1, 4] of 0.14 and an Absorption max. [2, 4] of 653 nm. The Extinction coefficient [2, 4] was 145,000 L mol^−1 cm^−1.

In the case of `CCN1C(=CC=CC=CC=CC2=[N+](CCCCS(=O)(=O)[O-])c3ccc(C(=O)NCCOCCC(F)(F)C(F)(F)C(F)(F)C(F)(F)C(F)(F)C(F)(F)C(F)(F)C(F)(F)F)cc3C2(C)C)C(C)(C)c2ccccc21` [Dye 12, 2-[5-(1-ethyl)-1,3-dihydro-3,3-dimethyl-2H-indol-2-ylidene)-1,3,5-heptatrienyl]-5-{N-[2-(3,3,4,4,5,5,6,6,7,7,8,8,9,9,10,10,10-heptadecafluorodecyloxy)-ethyl]-aminocarbonyl}-3,3-dimethyl-1-(4-sulfobutyl)-3H-indolium, internal salt, sodium salt], the Fluorescence max. [1, 4] is reported as 788 nm, the Fluorescence quantum yield [1, 4] is reported as 0.13 and the Absorption max. [2, 4] is reported as 754 nm. For the same molecule, the Extinction coefficient [2, 4] was 118,800 L mol^−1 cm^−1.

Work on `CCN1C(=CC=CC=CC2=[N+](CCCCS(=O)(=O)[O-])c3ccc(C(=O)N(CCOCCC(F)(F)C(F)(F)C(F)(F)C(F)(F)C(F)(F)C(F)(F)C(F)(F)C(F)(F)F)CC(O)CO)cc3C2(C)C)C(C)(C)c2ccccc21` (stereo not shown) [Dye 13, 2-[5-(1-ethyl)-1,3-dihydro-3,3-dimethyl-2H-indol-2-ylidene)-1,3-pentatrienyl]-5-{N-[2-(3,3,4,4,5,5,6,6,7,7,8,8,9,9,10,10,10-heptadecafluorodecyloxy)ethyl]-N-(2,3-dihydroxypropyl)aminocarbonyl}-3,3-dimethyl-1-(4-sulfobutyl)-3H-indolium, internal salt, sodium salt] yielded a Fluorescence max. [1, 4] of 684 nm, a Fluorescence quantum yield [1, 4] of 0.16 and an Absorption max. [2, 4] of 650 nm. The Extinction coefficient [2, 4] was 150,700 L mol^−1 cm^−1.

With `CCN1C(=CC=CC=CC=CC2=[N+](CCCCS(=O)(=O)[O-])c3ccc(C(=O)N(CCOCCC(F)(F)C(F)(F)C(F)(F)C(F)(F)C(F)(F)C(F)(F)C(F)(F)C(F)(F)F)CC(O)CO)cc3C2(C)C)C(C)(C)c2ccccc21` (stereo not shown) [Dye 14, 2-[5-(1-ethyl)-1,3-dihydro-3,3-dimethyl-2H-indol-2-ylidene)-1,3,5-heptatrienyl]-5-{N-[2-(3,3,4,4,5,5,6,6,7,7,8,8,9,9,10,10,10-heptadecafluorodecyloxy)-ethyl]-N-(2,3-dihydroxypropyl)aminocarbonyl}-3,3-dimethyl-1-(4-sulfobutyl)-3H-indolium, internal salt, sodium salt] the Fluorescence max. [1, 4] was 789 nm, the Fluorescence quantum yield [1, 4] was 0.09 and the Absorption max. [2, 4] was 753 nm. The Extinction coefficient [2, 4] was 124,100 L mol^−1 cm^−1.

For `CC1(C)C(/C=C/C=C/C=C/C=C2\N(CCCCS(=O)(=O)O)c3ccc4ccccc4c3C2(C)C)=[N+](CCCCS(=O)(=O)[O-])c2ccc3ccccc3c21` [indocyanine green], the “fluorescence quantum yield (reference standard)” value [3] is listed as 13%.
